Measurements from ChEMBL document CHEMBL1201862, “PubChem BioAssay data set” (2004).
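Growth conditions: 96-well plates. Treatment: test compound, 48 hours, 5 concentrations. Analysis: linear interpolation between bracketing concentrations; unreached endpoints set to highest concentration. GI50 = concentration required for 50% inhibition of growth.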 Activity calls are given as the source filed them. Rule as the data show it: active = GI50 up to about 1.1 µM and inactive = higher.

Legend:
Assay in all cases: DTP human tumour cell line panel, 48 h
DLD-1 = system: DLD-1
DMS-114 = system: DMS-114
HOP-18 = system: HOP-18
KM-20L2 = system: KM-20L2
LXFL 529 = system: LXFL 529
M19-MEL = system: M19-MEL
SNB-78 = system: SNB-78
XF498 = system: XF498
RXF 631 = system: RXF 631

SMILES | GI50 (DLD-1) | GI50 (DMS-114) | GI50 (HOP-18) | GI50 (KM-20L2) | GI50 (LXFL 529) | GI50 (M19-MEL) | GI50 (SNB-78) | GI50 (XF498) | GI50 (RXF 631)
O=C(Cc1ccccc1)NN1C(=O)C(Cl)C1c1cccc(O)c1 (configuration not stated) | 14.8 µM (inactive) | 13.8 µM (inactive) | 20.6 µM (inactive) | 15.1 µM (inactive) | 10.6 µM (inactive) | 18 µM (inactive) | 15.8 µM (inactive) | 20.1 µM (inactive) | –
CCOC(=O)C(C)(C)Oc1ccc2c(-c3ccc(Cl)cc3)c(-c3ccc(Cl)cc3)c(=O)oc2c1 | > 100 µM (inactive) | > 100 µM (inactive) | – | > 100 µM (inactive) | > 100 µM (inactive) | > 100 µM (inactive) | – | – | > 100 µM (inactive)
Oc1cc(-c2cccc(Cl)c2)nc2cc3c(cc12)OCO3 | 0.245 µM (active) | 0.296 µM (active) | 1.5 µM (inactive) | – | 0.19 µM (active) | 0.327 µM (active) | – | 1.4 µM (inactive) | –
Cn1nc2ccc3nccc(NCCNCCO)c3c2n1 | 33.2 µM (inactive) | – | – | 25.8 µM (inactive) | 39.2 µM (inactive) | 40.4 µM (inactive) | 36.2 µM (inactive) | 35 µM (inactive) | –
COc1ccc(NC(=O)C2C(=O)N(c3ccc(OC)cc3)C(=O)/C2=N/O)cc1 (configuration not stated) | 64.4 µM (inactive) | 35.6 µM (inactive) | 17.9 µM (inactive) | 48 µM (inactive) | 25.2 µM (inactive) | 26.5 µM (inactive) | 46.8 µM (inactive) | 14 µM (inactive) | –
Cc1ccc(NC(=O)/C(Cl)=C(/Cl)C(=O)O)cc1 | 16.4 µM (inactive) | 20 µM (inactive) | 19.1 µM (inactive) | 22.4 µM (inactive) | 11.9 µM (inactive) | 16 µM (inactive) | 30.1 µM (inactive) | – | 24.4 µM (inactive)
COc1ccc(/C=C\c2cc(OC)c(OC)c(OC)c2)cc1OC | 0.173 µM (active) | 0.105 µM (active) | 0.411 µM (active) | 0.0771 µM (active) | 0.186 µM (active) | – | 0.0171 µM (active) | 0.122 µM (active) | 0.195 µM (active)
CCOC(=O)C(C)(C)Oc1ccc2c(-c3ccccc3)cc(=O)oc2c1 | 25.3 µM (inactive) | 21.9 µM (inactive) | – | 30.6 µM (inactive) | 25.3 µM (inactive) | 32.2 µM (inactive) | – | 16.4 µM (inactive) | –
c1ccc(CN2CCc3[nH]c4ccccc4c3C2)cc1 | 37.8 µM (inactive) | 19.8 µM (inactive) | 99.8 µM (inactive) | 15 µM (inactive) | 22.9 µM (inactive) | 26.5 µM (inactive) | 35.6 µM (inactive) | 24.2 µM (inactive) | 18.8 µM (inactive)
CN(C)CCNC(=O)c1cccc2c1nc(-c1ccc(F)cc1)c1ccccc12 | 2.45 µM (inactive) | 4.42 µM (inactive) | 14.4 µM (inactive) | – | – | 5.52 µM (inactive) | 10.7 µM (inactive) | – | –
COC(=O)C1Cc2c([nH]c3ccccc23)[C@H](CC(C)C)N1 (some centres not stated) | > 100 µM (inactive) | > 100 µM (inactive) | > 100 µM (inactive) | > 100 µM (inactive) | > 100 µM (inactive) | > 100 µM (inactive) | > 100 µM (inactive) | > 100 µM (inactive) | –
CCCCCCCCCCSS(=O)(=O)c1ccc(C)cc1 | 12.5 µM (inactive) | 8.69 µM (inactive) | 17.9 µM (inactive) | 16.6 µM (inactive) | 13.6 µM (inactive) | 11.2 µM (inactive) | 10.9 µM (inactive) | 13.3 µM (inactive) | 7.28 µM (inactive)
Nc1nc(O)c2c(ncn2CC(O)CO)n1 (configuration not stated) | > 100 µM (inactive) | > 100 µM (inactive) | > 100 µM (inactive) | > 100 µM (inactive) | > 100 µM (inactive) | > 100 µM (inactive) | > 100 µM (inactive) | – | > 100 µM (inactive)
CCCCCCCCCC[C@@H](O)[C@@H]1CC[C@@H]([C@@H]2CC[C@@H]([C@@H](O)CCCCCCCCCC[C@H](O)CC3=CC(C)OC3=O)O2)O1 (some centres not stated) | 3.31 µM (inactive) | < 0.01 µM (active) | – | 13.6 µM (inactive) | 3.82 µM (inactive) | 2.22 µM (inactive) | 3.8 µM (inactive) | – | 1.97 µM (inactive)
[O-][S+](c1ccc(O)cc1)c1ccc(O)cc1 | > 100 µM (inactive) | > 100 µM (inactive) | – | > 100 µM (inactive) | – | > 100 µM (inactive) | – | > 100 µM (inactive) | > 100 µM (inactive)
CCOc1ccccc1Nc1nc(C)c(C(=O)CC(=O)C(=O)Nc2ccccc2)s1 | 37.3 µM (inactive) | 35.5 µM (inactive) | > 100 µM (inactive) | 66.4 µM (inactive) | 43.3 µM (inactive) | 36.5 µM (inactive) | > 100 µM (inactive) | 31.6 µM (inactive) | –
CC1(OCc2ccccc2)C(=O)N2C1N(C(=O)OCc1ccccc1)CC2(C)C (configuration not stated) | 54.3 µM (inactive) | 31.3 µM (inactive) | – | 55.8 µM (inactive) | 31.6 µM (inactive) | 32.1 µM (inactive) | – | 24.8 µM (inactive) | –
N#Cc1cc([N+](=O)[O-])ccc1NC(=O)C(=O)Nn1c(S)nc2ccccc2c1=O | > 100 µM (inactive) | – | > 100 µM (inactive) | > 100 µM (inactive) | > 100 µM (inactive) | > 100 µM (inactive) | > 100 µM (inactive) | > 100 µM (inactive) | > 100 µM (inactive)
Cc1cccc(C(C)C)c1NC(=O)CCl | 65 µM (inactive) | 20.8 µM (inactive) | 53.7 µM (inactive) | 45.4 µM (inactive) | 76.7 µM (inactive) | 51.6 µM (inactive) | 48.9 µM (inactive) | – | –
C=CC(Br)(CBr)CCC(Br)C(C)(C)Br (configuration not stated) | 17.2 µM (inactive) | 11.6 µM (inactive) | 15.5 µM (inactive) | – | 14.5 µM (inactive) | 14.3 µM (inactive) | 5.56 µM (inactive) | – | –
COc1ccc(-c2oc(/C=N/c3ccccc3)c([N+](=O)[O-])c2-c2ccc(OC)c(OC)c2)cc1OC | > 100 µM (inactive) | > 100 µM (inactive) | – | > 100 µM (inactive) | > 100 µM (inactive) | > 100 µM (inactive) | > 100 µM (inactive) | > 100 µM (inactive) | –
CC(=O)O[C@@]12CO[C@@H]1C[C@H](O)[C@@]1(C)C(=O)[C@H](O)C3=C(C)[C@@H](OC(=O)[C@H](O)[C@@H](NC(=O)OC(C)(C)C)c4ccccc4)C[C@@](O)([C@@H](OC(=O)c4ccccc4)[C@H]21)C3(C)C [DOCETAXEL] | < 0.01 µM (active) | < 0.01 µM (active) | 29.9 µM (inactive) | < 0.01 µM (active) | < 0.01 µM (active) | < 0.01 µM (active) | – | – | < 0.01 µM (active)
